Test results published in article PMC11378297, “Discovery and Profiling of New Multimodal Phenylglycinamide Derivatives as Potent Antiseizure and Antinociceptive Drug Candidates” (ACS Chemical Neuroscience, 2024).

Columns and labels:
[1] = thermogravimetric analysis and differential scanning calorimetry; assay type: physicochemical
Excerpt: Bearing in mind that the active pharmaceutical ingredients are often exposed to heat upon a final dosage form manufacturing (e.g., granulation, hot melt-extrusion, and coating), high thermal stability of the compound is a favorable feature predisposing the molecule (R)-32 for a further development. Another property that may considerably slow down the process of bringing a new molecule to the market is limited solubility in water. Thus, a simple approach to verify if it would be possible to overcome this drawback by the physical modification of its crystalline structure was also undertaken. […] The melting endotherm of crystalline (R)-32 had the onset ca. 115 °C and the minimum at 126 °C. After a simple thermal treatment such as cooling of the melt, the amorphous form of (R)-32 was obtained. Its glass transition temperature was relatively low, ca. 30 °C, which means that (R)-32 should be coprocessed with excipients of antiplasticizing properties to develop enabling formulations stable at ambient storage conditions.
A Mettler Toledo thermogravimetric analysis/SDTA 851^e apparatus calibrated with indium, zinc, and aluminum was used. Its accuracy was equal to 10^–6 g. The samples were placed in an open aluminum crucible. The measurements were performed in Ar 5.0 (50 mL/min). The temperature ranged from 25 to 400 °C. The constant heating rate of 10 °C/min was applied. […]

| SMILES | melting point [°C] | thermally stable while heating up to (weight loss noted, TGA) ([1]; 10 °C/min) [°C] | glass transition temperature of the amorphous form (DSC) ([1]; after cooling of the melt) |
| --- | --- | --- | --- |
| CC(=O)N[C@@H](C(=O)N1CCN(c2cccc(C(F)(F)F)c2)CC1)c1ccccc1 [(R)-31, (R)-N-(2-Oxo-1-phenyl-2-(4-(3-(trifluoromethyl)phenyl)piperazin-1-yl)ethyl)acetamide] | 112.9 to 113.5 |  |  |
| CC(=O)N[C@@H](C(=O)N1CCN(c2cccc(OC(F)(F)F)c2)CC1)c1ccccc1 [(R)-32, (R)-N-(2-Oxo-1-phenyl-2-(4-(3-(trifluoromethoxy)phenyl)piperazin-1-yl)ethyl)acetamide] |  | 190 | ca. 30 °C |
